Patent US8765693B2, “Method of inhibiting premature aging of human skin caused by exposure to infrared radiation” (L'Oreal, priority 2012, dated 2014)

Tested on: IRA induced MMP-1
Experiment: IRA-induced MMP-1 mRNA expression in primary human dermal fibroblasts
Assay type: cell-based
Conditions: for Effects in IRA treated cells: inhibition (MMP-1 mRNA): 24 hrs pre-incubation, 360 J/cm^2 Infrared A, harvested 24 hrs after irradiation; for Effect on IRA induced MMP-1 in vitro (in words): primary human dermal fibroblasts
Method: Primary Human Dermal Fibroblasts
Hydrosun 500H IRA device (Hydrosun Medizintechnik GmbH, Müllheim, Germany). The IRA device was water-filtered and equipped with a black filter and emits wavelengths between 760 and 1400 nm leading to an irradiance of 360 mW/cm^2.
Baicalin: stock 44.8 mM in DMSO, and diluted to 10 μM, 25 μM
Phloretin: stock 50 mM in DMSO, and diluted to 1 μM, 5 μM, and 10 μM as final treatment conditions.
Neohesperidin dihydrochalcone: stock 710 mM in DMSO, and diluted to 100 μM, 500 μM, and 1 mM as final treatment conditions.
Cells were incubated for 24 hrs after irradiation, and then harvested to have MMP-1 mRNA analyzed.

COc1ccc(CCC(=O)c2c(O)cc(O[C@@H]3O[C@H](CO)[C@@H](O)[C@H](O)[C@H]3O[C@@H]3O[C@@H](C)[C@H](O)[C@@H](O)[C@H]3O)cc2O)cc1O [Neohesperidin dihydrochalcone]
Effects in IRA treated cells: inhibition (MMP-1 mRNA) (100 μM (0.006%)): 100% inhibition with 100 μM+ (0.006%) | Effects in IRA treated cells: inhibition (MMP-1 mRNA) (500 μM (0.03%)): 100% inhibition with 500 μM+ (0.03%) | Effects in IRA treated cells: inhibition (MMP-1 mRNA) (1 mM (0.06%)): 100% inhibition with 1 mM+ (0.06%) | Effect on IRA induced MMP-1 in vitro (in words): reduced IRA induced MMP-1

O=C(O)[C@H]1O[C@@H](Oc2cc3oc(-c4ccccc4)cc(=O)c3c(O)c2O)[C@H](O)[C@@H](O)[C@@H]1O [Baicalin]
Effects in IRA treated cells: inhibition (MMP-1 mRNA) (10 μM): 26% inhibition with 10 μM | Effects in IRA treated cells: inhibition (MMP-1 mRNA) (25 μM (0.001%)): 100% inhibition with 25 μM+ (0.001%) | Effect on IRA induced MMP-1 in vitro (in words): reduced IRA induced MMP-1

O=C(CCc1ccc(O)cc1)c1c(O)cc(O)cc1O [Phloretin]
Effects in IRA treated cells: inhibition (MMP-1 mRNA) (1 μM (0.00002%)): 22% inhibition with 1 μM+ (0.00002%) | Effects in IRA treated cells: inhibition (MMP-1 mRNA) (5 μM (0.00014%)): 78% inhibition with 5 μM+ (0.00014%) | Effects in IRA treated cells: inhibition (MMP-1 mRNA) (10 μM): 68% inhibition with 10 μM+ (0.0028%) | Effect on IRA induced MMP-1 in vitro (in words): reduced IRA induced MMP-1
